According to patent publication US6998423B2, “Prevention of loss and restoration of bone mass by certain prostaglandin agonists” (priority 1996, dated 2006):

System: Bone Morphogenetic Protein 7 (BMP-7) expression in EP2 293S cells
Assay: Induction of BMP-7 expression (Northern blot) in 293S cells transfected with the EP2 receptor
Format: cell-based, human
Conditions: 10^−6M, RNA extracted at 8, 16 and 24 hours, Northern blot with 32P-labeled BMP-7 probe
Description: Methods: 293S and EP2 293S cells were grown in Dulbecco's Modified Egale medium (DMEM, Gibco, BRL; Gaithersburg, Md.). One day prior to treatment with PGE2or a prostaglandin agonist, cells were plated at a density of 1.5×10^6 cells /10 cm dish. […] Cells were harvested and RNA extracted at 8, 16 and 24 hours. Northern blot analysis of total ([…] ) was carried out by probing the blots with ^32P-labeled BMP-7 probe. The blots were normalized for RNA loading by hybridization with ^32P-labeled 18s ribosomal RNA probe. […] Given the known role of BMP-7 in kidney regeneration and the ability of a prostaglandin agonist to induce BMP-7 expression in 293S kidney cells in a time and receptor specific manner indicates a role for a prostaglandin agonist in kidney regeneration.

## CCCCC[C@H](O)/C=C/[C@H]1[C@H](O)CC(=O)[C@@H]1C/C=C\CCCC(=O)O [PGE2, prostaglandin E2]
  induction of the expression of BMP-7: in a time dependent manner induce the expression of BMP-7
